## O=c1nc([O-])n(Cl)c(=O)n1Cl.[Na+] [NaDCC, sodium dichlorocyanurate]
At 240° C. to 300° C., attributed to pyrolysis/oxidations
  most extensive mass loss: ~40%
Between 55° C. to 100° C., nitrogen and air, attributed to absorbed water
  mass loss: around 7%

## O=c1[n-]c(=O)n(Cl)c(=O)n1Cl.O=c1[n-]c(=O)n(Cl)c(=O)n1Cl.O=c1[n-]c(=O)n(Cl)c(=O)n1Cl.O=c1[n-]c(=O)n(Cl)c(=O)n1Cl.[Cu+2].[Na+].[Na+] [CuDCC, Copper Dichlorocyanurate]
Based on lack of mass loss between 55° C. to 133° C.
  hygroscopicity: not hydroscopic
